Assay [1] addresses human DGKζ (Homo sapiens (Human), UniProt Q13574). The assay is described as follows: biochemical. Particulars: Table A; liposome (LIPGLO) assay; read-out: DGKζ. In kind it is biochemical.
Assay [2] concerns the target Human DGKα(9-727) (Homo sapiens (Human), UniProt P23743). The assay is described as follows: biochemical. Particulars: Table A, liposome (LIPGLO) assay.
Assay [3] relates to Human venous whole blood (IFN-γ). The assay is described as follows: Human whole blood IFN-γ assay. In kind it is cell-based. As for the experimental part: Assay 10: Human Whole Blood IFN-γ Assay
Human venous whole blood (22.5 μL per well), obtained from healthy donors, was pre-treated with compounds for one hour at 37° C. in a humidified 95% air/5% CO2 incubator. The blood was stimulated with 2.5 μL anti-human CD3 and anti-CD28 mAb at a final concentration of 1 μg/mL each for 24 hours at 37° C. IFN-γ in the supernatants was measured using AlphLISA kit (Cat #AL217).

Assay [4] concerns human venous whole blood, CD8 positive population (pERK). Nature of the assay: DGK human whole blood pERK assay. Type of assay: cell-based. In a few lines: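 Read-out is the pERK-positive fraction of CD8+ cells measured by flow cytometry. Donor venous blood (heparin) saw compound for one hour at 37° C before a 15-minute anti-CD3 challenge (1 μg/mL final) with cross-linking anti-mouse IgG.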

In assay [5] the target is DGKα (Homo sapiens (Human), UniProt P23743). Nature of the assay: biochemical. In kind it is biochemical. The note with it: Table A; liposome (LIPGLO) assay; read-out: DGKα.
DGKα, sequence (P23743 whole entry, looked up): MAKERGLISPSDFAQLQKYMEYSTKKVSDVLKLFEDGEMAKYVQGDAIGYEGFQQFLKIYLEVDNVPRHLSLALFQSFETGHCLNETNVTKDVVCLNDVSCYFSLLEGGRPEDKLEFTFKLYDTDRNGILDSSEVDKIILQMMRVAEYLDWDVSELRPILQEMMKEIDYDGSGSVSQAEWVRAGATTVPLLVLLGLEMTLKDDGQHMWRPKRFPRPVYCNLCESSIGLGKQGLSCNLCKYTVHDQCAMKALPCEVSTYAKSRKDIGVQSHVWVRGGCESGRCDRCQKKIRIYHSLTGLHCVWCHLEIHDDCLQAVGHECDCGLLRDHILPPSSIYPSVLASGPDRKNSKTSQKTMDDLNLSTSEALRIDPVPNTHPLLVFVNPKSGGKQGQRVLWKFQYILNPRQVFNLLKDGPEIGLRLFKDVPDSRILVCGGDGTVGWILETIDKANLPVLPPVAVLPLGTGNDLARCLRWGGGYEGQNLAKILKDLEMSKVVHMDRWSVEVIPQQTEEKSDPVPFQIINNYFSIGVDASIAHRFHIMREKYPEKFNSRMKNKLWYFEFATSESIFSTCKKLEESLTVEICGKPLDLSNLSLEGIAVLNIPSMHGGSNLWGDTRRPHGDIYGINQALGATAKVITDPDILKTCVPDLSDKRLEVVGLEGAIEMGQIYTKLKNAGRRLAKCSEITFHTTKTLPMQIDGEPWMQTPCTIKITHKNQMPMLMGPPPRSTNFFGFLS
Where [6] appears, read: Homo sapiens, read-out: INFg Whole Blood, human whole blood IFN-γ.
Setting [7] is: read-out: DGK HWB, human whole blood pERK.
[8] abbreviates: read-out: INFg Whole Blood, human whole blood IFN-γ.
Where [9] appears, read: Homo sapiens, CD8 positive, human whole blood pERK, read-out: DGK HWB.
The mark [10] stands for this setting: human whole blood IFN-γ, read-out: INFg Whole Blood.
The mark [11] stands for this setting: human whole blood pERK, read-out: DGK HWB.
Setting [12] is: Homo sapiens, CD8 positive, human whole blood, CD8 positive population, anti-CD3 stimulation, top concentration 20 μM, read-out: DGK HWB (human whole blood pERK).

Consider 20 compounds from patent US11964973B2 (priority 2019, dated 2024).

Each structure is given as a SMILES string. Read-outs that look alike come from different tables or passages of the source.

Human DGKα(9-727), sequence (P23743 whole entry, looked up): as above
human DGKζ, sequence (Q13574 whole entry, looked up): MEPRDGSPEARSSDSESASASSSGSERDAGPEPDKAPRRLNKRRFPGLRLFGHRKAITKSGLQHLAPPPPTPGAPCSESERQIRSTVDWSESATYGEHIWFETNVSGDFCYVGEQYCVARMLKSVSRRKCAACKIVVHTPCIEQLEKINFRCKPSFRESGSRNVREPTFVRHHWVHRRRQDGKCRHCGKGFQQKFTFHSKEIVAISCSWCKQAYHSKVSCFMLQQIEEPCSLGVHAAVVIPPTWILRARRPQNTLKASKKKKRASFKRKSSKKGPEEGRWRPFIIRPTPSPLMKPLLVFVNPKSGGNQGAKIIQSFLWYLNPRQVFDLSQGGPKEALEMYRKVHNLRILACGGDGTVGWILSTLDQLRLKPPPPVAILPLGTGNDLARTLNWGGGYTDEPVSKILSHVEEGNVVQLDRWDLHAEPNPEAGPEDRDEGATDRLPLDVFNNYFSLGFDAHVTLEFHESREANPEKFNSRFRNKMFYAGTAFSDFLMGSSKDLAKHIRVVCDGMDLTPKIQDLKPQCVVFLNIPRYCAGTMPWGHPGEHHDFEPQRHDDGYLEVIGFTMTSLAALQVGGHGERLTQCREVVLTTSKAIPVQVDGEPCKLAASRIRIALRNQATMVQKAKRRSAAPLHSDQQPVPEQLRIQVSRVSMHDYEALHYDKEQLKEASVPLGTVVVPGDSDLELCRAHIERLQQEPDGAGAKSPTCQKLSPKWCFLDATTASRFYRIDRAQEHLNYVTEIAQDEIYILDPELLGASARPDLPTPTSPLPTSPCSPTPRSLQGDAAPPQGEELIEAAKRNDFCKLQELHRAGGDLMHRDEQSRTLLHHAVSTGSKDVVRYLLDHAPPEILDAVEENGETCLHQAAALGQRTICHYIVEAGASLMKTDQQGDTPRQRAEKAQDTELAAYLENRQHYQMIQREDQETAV

Consider `CC(C)Oc1ccc(OC2C[C@H](C)N(c3nc(=O)n(C)c4ccc(C#N)nc34)C[C@@H]2C)nc1` (mixture of isomers) [Example 246, (±)-Cis-(-4-((5-isopropoxypyridin-2-yl)oxy)-2,5-dimethylpiperidin-1-yl)-1-methyl-2-oxo-1,2-dihydropyrido[3,2-d]pyrimidine-6-carbonitrile], for which the IC50 came to 0.87 µM in assay [1] and 0.069 µM in assay [2] (read-out: DGKα). Also, the EC50 worked out at 0.45 µM in assay [3] (setting [6]) and 0.83 µM in assay [4] (setting [7]).

In the case of `CC[C@@H]1CN(c2cc(=O)n(C)c3ccc(C#N)nc23)CC[C@H]1Oc1cccc(C(C)(C)C)c1` (single isomer, unassigned) [Example 197], the values for the IC50 in assay [5], in assay [1] and in assay [2] (read-out: DGKα) were 0.011 µM, 0.25 µM and 0.0054 µM, respectively. In addition, the EC50 amounted to 0.57 µM in assay [3] (setting [8]) and 0.6 µM in assay [4] (Homo sapiens, CD8 positive, read-out: DGK HWB, human whole blood pERK).

Consider `CCC(C)(C)c1ccc(O[C@@H]2CCN(c3c(C#N)c(=O)n(C)c4ccc(C#N)nc34)C[C@H]2C)cc1` (single isomer, unassigned) [Example 231, 5-methyl-8-(trans-3-methyl-4-(4-(tert-pentyl)phenoxy)piperidin-1-yl)-6-oxo-5,6-dihydro-1,5-naphthyridine-2,7-dicarbonitrile (rel)], for which the IC50 in assay [5] was determined as 0.49 µM; in assay [1] it was 83 µM; in assay [2] (read-out: DGKα) it was 1.6 µM. In addition, the EC50 worked out at 0.51 µM in assay [3] (Homo sapiens, human whole blood IFN-γ, read-out: INFg Whole Blood) and 0.4 µM in assay [4] (setting [9]).

Turning to `CC(C)Oc1ccc(OC2C[C@@H](C)N(c3nc(=O)n(C)c4ccc(C#N)nc34)C[C@H]2C)nc1` (single isomer, unassigned) [Example 244, (±)-Cis-(-4-((5-isopropoxypyridin-2-yl)oxy)-2,5-dimethylpiperidin-1-yl)-1-methyl-2-oxo-1,2-dihydropyrido[3,2-d]pyrimidine-6-carbonitrile], the IC50 amounted to 0.92 µM in assay [1] and 0.32 µM in assay [2] (read-out: DGKα). Moreover, the EC50 in assay [3] (setting [6]) stood at 0.78 µM; in assay [4] (setting [7]) it was 3.1 µM.

As for `CC(C)Oc1ccc(OC2C[C@@H](C)N(c3nc(=O)n(C)c4ccc(C#N)nc34)C[C@H]2C)nc1` (single isomer, unassigned) [Example 245, (±)-Cis-(-4-((5-isopropoxypyridin-2-yl)oxy)-2,5-dimethylpiperidin-1-yl)-1-methyl-2-oxo-1,2-dihydropyrido[3,2-d]pyrimidine-6-carbonitrile], the IC50 in assay [1] came to 0.05 µM; in assay [2] (read-out: DGKα), 0.43 µM. Further, the EC50 in assay [3] (setting [8]) stood at 0.41 µM; in assay [4] (setting [7]), 0.8 µM.

Take `CO[C@@H]1CN(c2cc(=O)n(C)c3ccc(C#N)nc23)CC[C@H]1Oc1cccc(C(F)(F)F)c1` (single isomer, unassigned) [Example 261, (±)-trans-8-(3-methoxy-4-(3-(trifluoromethyl)phenoxy)piperidin-1-yl)-5-methyl-6-oxo-5,6-dihydro-1,5-naphthyridine-2-carbonitrile]: the figures for the IC50 in assay [1] and in assay [2] (read-out: DGKα) were 1.4 µM and 0.2 µM, respectively. Further, the EC50 in assay [4] (setting [9]) is 1.5 µM.

With `CO[C@H]1CN(c2cc(=O)n(C)c3ccc(C#N)nc23)CC[C@@H]1Oc1ccc(OC(C)C)cn1` (single isomer, unassigned) [Example 269, (±)-trans-8-(4-((5-isopropoxypyridin-2-yl)oxy)-3-methoxypiperidin-1-yl)-5-methyl-6-oxo-5,6-dihydro-1,5-naphthyridine-2-carbonitrile], the IC50 in assay [1] was determined as 1.5 µM; in assay [2] (read-out: DGKα), 0.047 µM. Also, the EC50 in assay [4] (setting [9]) turned out to be 2.1 µM.

Consider `COc1ccc(NC2C[C@H](C)N(c3cc(=O)n(C)c4ccc(C#N)nc34)C[C@H]2C)nc1` (single isomer, unassigned) [Example 281], for which the IC50 in assay [1] worked out at 2.8 µM; in assay [2] (read-out: DGKα) it was 2.7 µM. Further, the EC50 in assay [3] (setting [10]) is 9.8 µM.

Take `CC1CN(c2cc(=O)n(C)c3ccc(C#N)nc23)CCC1N(C)C(=O)c1ccc(F)cc1` (single isomer, unassigned) [Example 284, N-(1-(6-Cyano-1-methyl-2-oxo-1,2-dihydro-1,5-naphthyridin-4-yl)-3-methylpiperidin-4-yl)-4-fluoro-N-methylbenzamide]: the IC50 was 120 µM in assay [1] and 23 µM in assay [2] (read-out: DGKα). Moreover, in assay [4] (setting [11]), the EC50 came out at 20 µM.

With `CC1CN(c2cc(=O)n(C)c3ccc(C#N)nc23)CCC1N(C)C(=O)c1ccc(F)cc1` (single isomer, unassigned) [Example 285, N-(1-(6-Cyano-1-methyl-2-oxo-1,2-dihydro-1,5-naphthyridin-4-yl)-3-methylpiperidin-4-yl)-4-fluoro-N-methylbenzamide], the IC50 was determined as 130 µM in assay [1] and 30 µM in assay [2] (read-out: DGKα). The EC50 in assay [4] (setting [11]) was 20 µM.

For the compound `CC1CN(c2cc(=O)n(C)c3ccc(C#N)nc23)CCC1N(C)C(=O)c1ccc(F)cc1` (single isomer, unassigned) [Example 286, N-(1-(6-Cyano-1-methyl-2-oxo-1,2-dihydro-1,5-naphthyridin-4-yl)-3-methylpiperidin-4-yl)-4-fluoro-N-methylbenzamide], the IC50 in assay [1] was 9.2 µM; in assay [2] (read-out: DGKα), 5.2 µM. Moreover, the EC50 in assay [4] (setting [11]) came out at 8.7 µM.

On to `C[C@H]1CN(c2cc(=O)n(C)c3ccc(C#N)nc23)[C@@H](C)CC1N(C)c1ccc(C(F)(F)F)cc1` (single isomer, unassigned) [Example 318], for which the IC50 in assay [2] (read-out: DGKα) stood at 130 µM. Moreover, the EC50 in assay [4] (setting [9]) was 20 µM.

Regarding `CC1CN(c2c(C#N)c(=O)n(C)c3ccc(C#N)nc23)CCC1N(C)Cc1ccc(F)cc1` (single isomer, unassigned) [Example 322, 8-(4-((4-Fluorobenzyl)(methyl)amino)-3-methylpiperidin-1-yl)-5-methyl-6-oxo-5,6-dihydro-1,5-naphthyridine-2,7-dicarbonitrile], the IC50 in assay [1] was found to be 78 µM; in assay [2] (read-out: DGKα), 6.8 µM. In assay [4] (setting [9]), the EC50 stood at 20 µM.

Consider `CC1CN(c2c(C#N)c(=O)n(C)c3ccc(C#N)nc23)CCC1N(C)Cc1ccc(F)cc1` (single isomer, unassigned) [Example 323, 8-(4-((4-Fluorobenzyl)(methyl)amino)-3-methylpiperidin-1-yl)-5-methyl-6-oxo-5,6-dihydro-1,5-naphthyridine-2,7-dicarbonitrile], for which the results for the IC50 in assay [1] and in assay [2] (read-out: DGKα) were 18 µM and 3.5 µM, respectively. Further, in assay [4] (setting [11]), the EC50 was 12 µM.

Consider `CC1CN(c2c(C#N)c(=O)n(C)c3ccc(C#N)nc23)CCC1N(C)Cc1ccc(F)cc1` (single isomer, unassigned) [Example 324, 8-(4-((4-Fluorobenzyl)(methyl)amino)-3-methylpiperidin-1-yl)-5-methyl-6-oxo-5,6-dihydro-1,5-naphthyridine-2,7-dicarbonitrile], for which the IC50 in assay [1] and in assay [2] (read-out: DGKα) was 130 µM throughout. Moreover, the EC50 in assay [4] (setting [11]) came to 20 µM.

`CC1CN(c2c(C#N)c(=O)n(C)c3ccc(C#N)nc23)CCC1N(C)Cc1ccc(F)cc1` (single isomer, unassigned) [Example 325, 8-(4-((4-Fluorobenzyl)(methyl)amino)-3-methylpiperidin-1-yl)-5-methyl-6-oxo-5,6-dihydro-1,5-naphthyridine-2,7-dicarbonitrile]: the results for the IC50 in assay [1] and in assay [2] (read-out: DGKα) were 50 µM and 49 µM, respectively. Besides, in assay [4] (setting [11]), the EC50 was determined as 20 µM.

With `CCO[C@H]1CN(c2cc(=O)n(C)c3ccc(C#N)nc23)CC[C@H]1Oc1cccc(C(F)(F)F)c1` (single isomer, unassigned) [Example 370, cis-8-(3-Ethoxy-4-(3-(trifluoromethyl)phenoxy)piperidin-1-yl)-5-methyl-6-oxo-5,6-dihydro-1,5-naphthyridine-2-carbonitrile], the figures for the IC50 in assay [1] and in assay [2] (read-out: DGKα) were 5.6 µM and 5.1 µM, respectively. Besides, in assay [4] (setting [9]), the EC50 was 6.7 µM.

Consider `CCO[C@H]1CN(c2cc(=O)n(C)c3ccc(C#N)nc23)CC[C@@H]1OCc1ccc(OC(C)C)cn1` (single isomer, unassigned) [Example 384], for which, in assay [2] (read-out: DGKα LIPGLO IC50), the IC50 stood at 0.82 µM. In addition, the EC50 in assay [4] (setting [12]) was 4 µM.

With `CCO[C@@H]1CN(c2cc(=O)n(C)c3ccc(C#N)nc23)CC[C@H]1Oc1cccc(C(F)(F)F)c1` [Example 264, 8-((3R,4R)-3-ethoxy-4-(3-(trifluoromethyl)phenoxy)piperidin-1-yl)-5-methyl-6-oxo-5,6-dihydro-1,5-naphthyridine-2-carbonitrile], the figures for the IC50 in assay [1] and in assay [2] (read-out: DGKα) were 17 µM and 4 µM, respectively. Also, the EC50 in assay [3] (setting [10]) was 6.5 µM.

Consider `CCO[C@H]1CN(c2cc(=O)n(C)c3ccc(C#N)nc23)CC[C@@H]1OCc1ccc(OC(C)C)cn1` [Example 383, 8-((3S,4S)-3-ethoxy-4-((5-isopropoxypyridin-2-yl)methoxy)piperidin-1-yl)-5-methyl-6-oxo-5,6-dihydro-1,5-naphthyridine-2-carbonitrile], for which, in assay [2] (read-out: DGKα LIPGLO IC50), the IC50 was 6.1 µM. The EC50 in assay [4] (setting [12]) amounted to 20 µM.
